# “Also recorded” adds a separate entry of the source.
# Key:
# [1] = test system: HC isolated from normal mice, treated with CCl4; test: Hepatoprotection studies on CCl4-induced hepatocyte damage; assay type: cell-based; conditions: 5×10^−6 to 1×10^−4 g/ml, HC treated 2 hours, then 0.2% CCl4 1 hour
# Protocol: HC was isolated from the normal mice used in Experiment 8 above. The cells were treated for 2 hours with astilbin or RSG ext, then washed twice with WE medium solution. After washing, 0.1 ml of 0.2% CCl4 in olive oil was added to the cells, and the resulting cells were incubated for 1 hour. The ALT activity in the supernatants was determined by the conventional methods.
# HC isolated from the normal mice was used. The cells were treated for 2 hours with test compounds. After treatment, the cells were washed twice, and incubated for 1 hour after addition of 0.1 ml of 0.2% CCl4. The obtained supernatants were collected for assaying the ALT activity by the conventional methods. For the control studies, non-treated HC with test compounds were used.
# [2] = test system: HC isolated from liver injury mice; test: ALT-releasing assay, co-culture of NPC with pre-treated HC; assay type: cell-based; conditions: HC pre-treated with high concentration for more than 2 hours
# Protocol: HC in WE medium was incubated with or without test compounds for 1 hour. Then, the HC was seeded onto 96-well microplates (2×10^4 cells/0.2 ml/wells) and incubated at 37° C. with 5% (v/v) CO2 in air for 5 hours. After 5 hours, HC monolayers were washed twice with the medium, and then 8×10^4 cells of NPC were added. […] The test compounds were the same ones as described in Experiment 2, above.
# [3] = test system: CCl4-induced liver injury in mice; test: Hepatoprotection studies on CCl4-induced liver injury in mice; assay type: in vivo, ICR male mice; conditions: for ALT / AST: serum, 20 hours after CCl4
# Protocol: ICR male mice (8 mice for each group) were used. Astilbin (50 or 100 mg/kg) and RSG ext (100 or 200 mg/kg) were administered orally for 6 days. One hour after final administration, mice were intraperitoneally injected with 0.2% CCl4 in olive oil (0.2 ml/20 g of body weight).
# For the control studies, only CCl4 injected mice without drug administration were used.
# Then, 20 hours after administration of CCl4, the blood samples were collected, and used for determining the serum ALT and the serum AST activities by the conventional methods.
# [4] = test system: mice with liver injury induced by delayed-type hypersensitivity (DTH) reaction; test: Studies for drug administration time (induction phase and effector phase); assay type: in vivo; conditions: for histopathological examination of liver (inflammatory infiltration, hepatocellular coagulation necrosis): 18 hours after injection of picryl chloride into liver; for serum ALT activity: FIG. 5
# Protocol: The liver injury was induced by the same manner as described in Experiment 1. To determine the effects of astilbin and RSG ext on the induction phase (during sensitization) and effector phase (after elicitation of liver injury), astilbin (50 and 100 mg/kg) and RSG ext (100 and 200 mg/kg) were administered orally to the mice for once a day after 10 days from the 1st sensitization, and for 3 times at 0, 5 and 10 hours after elicitation, respectively.
# For the control studies, mice without drug administration were used, and for the positive control studies, 10 mg/kg cyclophosphamide (Cy) was administered percutaneously to the mice.
# 18 hours after the injection of picryl chloride into liver, the blood samples were collected for determining the serum ALT activity by the conventional methods. Histopathological examination of liver was also performed.
# [5] = test system: NPC and spleen cells isolated from normal mice; test: Apoptosis measurement No. 2, DNA fragmentation assay (gel agarose electrophoresis); assay type: cell-based; conditions: 5×10^−5 g/ml, 1 hour
# [6] = test system: non-adherent cells isolated from NPC; test: Apoptosis measurement No. 1, counting of apoptotic cells (Hoechst 33342); assay type: cell-based, mice; conditions: 5×10^−5 g/ml, 1 hour, 37° C., FIG. 1
# Protocol: (§1) Additionally, a part of NPC was incubated on the culture plate for 3 hours in order to separate adherent cells from non-adherent cells. […] HC and NPC isolated from liver injury mice 12 hours after elicitation, and fraction of adherent cells and non-adherent cells isolated from NPC were used. These cells were incubated with 5×10^−5 g/ml of astilbin and RSG ext, as the testing compounds, in RPMI 1640 medium at 37° C. for 1 hour, respectively. After incubation, the cells were stained with Hoechst 33342 (Molecular Probes, Inc., USA) for 1 minute at room temperature. After washed three times with RPMI 1640 medium, the obtained cells were fixed with 2% formaldehyde in phosphate buffer solution (PBS). The apoptotic cells among the total population were determined by counting a total of 200 cells in five different fields under fluorescent microscope. For the control studies, the cells treated without test compounds were incubated and followed by the same manner.
# [7] = test system: adherent cells isolated from NPC; test: as above; assay type: cell-based, mice; conditions: 5×10^−5 g/ml, 1 hour, 37° C., FIG. 1
# Protocol: as §1
# [8] = test system: NPC isolated from liver injury mice; test: ALT-releasing assay, co-culture of HC with pre-treated NPC; assay type: cell-based; conditions: for ALT activity in supernatants of HC co-cultured with pre-treated NPC: Example 5 Experiment 2, NPC incubated with test compound 1 hour, co-culture 3 hours, FIG. 6
# Protocol: HC and NPC were isolated from mice 12 hours after elicitation of liver injury. Thus obtained HC was suspended in WE medium, and was seeded onto 96-wells microplates (2×10^4 cells/0.2 ml/wells), and incubated at 37° C. for 5 hours with 5% (v/v) CO2 in air. After incubation, the HC was washed twice with WE medium and co-cultured with NPC of 8×10^4 cells for 3 hours. NPC was pre-incubated for 1 hour at 37° C. with various concentration of astilbin or RSG ext. After co-culture, the supernatants were collected for assaying ALT and AST activities by the conventional methods.
# HC and NPC were isolated from liver injury mice 12 hours after elicitation, as the same manner described in Experiment 4. Thus the HC was suspended in WE medium, and was seeded onto 96-wells microplates (2×10^4 cells/0.2 ml/wells), and incubated at 37° C. for 5 hours with 5% (v/v) CO2 in air. After incubation, the HC was washed twice with WE medium and co-cultured with NPC of 8×10^4 cells, which were pre-treated with 5×10^−5 g/ml of astilbin or RSG ext for 5, 15, 30, 60 and 120 minutes respectively, at 37° C. for 3 hours. After co-culture, the supernatants were collected for assaying the ALT activity by the conventional methods.
# HC (2×10^4 cells/0.2 ml/wells in WE medium) were seeded onto 96-well microplates and incubated at 37° C. with 5% (v/v) CO2 in air.
# On the other hand, NPC was incubated in the medium with or without test compounds for 1 hour. The test compounds were smitilbin of the formula (I-a), astilbin of the formula (I-b), engeletin of the formula (I-c), and eucryphin of formula (I-d), respectively.
# After 5 hours of the incubation, each monolayers of HC were washed twice with the medium, and then 8×10^4 cells of NPC, pre-treated with or without above test compounds, were added. After 3 hours of further incubation, the supernatants were collected and used for assaying the ALT activity by the conventional methods.
# [9] = test system: NPC isolated from liver injury mice; test: Apoptosis measurement No. 2, DNA fragmentation assay (gel agarose electrophoresis); assay type: cell-based; conditions: 5×10^−5 g/ml, 1 hour, NPC from liver injury mice 12 hours after elicitation
# [10] = test system: total NPC isolated from liver injury mice; test: Apoptosis measurement No. 1, counting of apoptotic cells (Hoechst 33342); assay type: cell-based; conditions: 5×10^−5 g/ml, 1 hour, 37° C., NPC from liver injury mice 12 hours after elicitation, FIG. 1
# Protocol: HC and NPC isolated from liver injury mice 12 hours after elicitation, and fraction of adherent cells and non-adherent cells isolated from NPC were used. These cells were incubated with 5×10^−5 g/ml of astilbin and RSG ext, as the testing compounds, in RPMI 1640 medium at 37° C. for 1 hour, respectively. After incubation, the cells were stained with Hoechst 33342 (Molecular Probes, Inc., USA) for 1 minute at room temperature. After washed three times with RPMI 1640 medium, the obtained cells were fixed with 2% formaldehyde in phosphate buffer solution (PBS). The apoptotic cells among the total population were determined by counting a total of 200 cells in five different fields under fluorescent microscope. For the control studies, the cells treated without test compounds were incubated and followed by the same manner.
# [11] = dose 50 mg/kg orally for 6 days
# [12] = dose 100 mg/kg orally for 6 days
# [13] = NPC pre-incubated 1 hour with various concentrations, co-culture with HC 3 hours, FIG. 2
smiles,measurement,setting,value
C[C@@H]1O[C@@H](O[C@H]2C(=O)c3c(O)cc(O)cc3O[C@@H]2c2ccc(O)c(O)c2)[C@H](O)[C@H](O)[C@H]1O [astilbin],ALT release from HC treated with CCl4,[1],None of the test compounds
same,ALT release from HC treated with CCl4,[1]; listed as Astilbin,did not affect
same,ALT releasing,[2],not changed
same,effect on elevation of ALT and AST activities,"[3]; astilbin 50 or 100 mg/kg, RSG ext 100 or 200 mg/kg orally for 6 days before CCl4",no effect
same,ALT,[3]; [11],901.6 ± 36.1 Karmen unit
same,AST,[3]; [11],670.4 ± 21.2 Karmen unit
same,ALT,[3]; [12],921.5 ± 40.2 Karmen unit
same,AST,[3]; [12],688.2 ± 45.6 Karmen unit
same,"histopathological examination of liver (inflammatory infiltration, hepatocellular coagulation necrosis)",[4],improvement of liver injury
same,serum ALT activity,"[4]; high dose (astilbin 100 mg/kg, RSG ext 200 mg/kg) orally in effector phase, 3 times at 0, 5 and 10 hours after elicitation, blood 18 hours after",significant decrease
same,serum ALT activity,"[4]; low dose (astilbin 50 mg/kg, RSG ext 100 mg/kg) orally in effector phase",tendency of decreasing
same,DNA ladder pattern (DNA fragmentation),[5],no DNA ladder' pattern appeared
same,ratio of apoptotic cells in non-adherent fraction isolated from NPC,[6],increased
same,ratio of apoptotic cells in the fraction of adherent cells of NPC,[7],no influence
same,ALT release,"[8]; 5×10^−5 g/ml, NPC pre-incubated 1 hour, co-culture with HC 3 hours",complete inhibition
same,ALT releasing,"[8]; 5×10^−5 g/ml, pre-treatment of NPC for more than 30 minutes",completely inhibited
same,ALT activity in supernatants of HC co-cultured with pre-treated NPC,[8],dose-dependently inhibited
same,ALT releasing activity of NPC,[8]; [13],dose-dependently inhibited; also recorded: stronger activity than RSG ext
same,AST releasing activity of NPC,[8]; [13],dose-dependently inhibited
same,releasing of ALT from HC,"[8]; NPC pre-treated with 5×10^−5 g/ml for 5, 15, 30, 60 and 120 minutes, FIG. 3",inhibited time-dependently
same,DNA ladder pattern (DNA fragmentation),[9],DNA ladder' pattern appeared
same,ratio of apoptotic cells in total NPC,[10],significantly increased
C[C@@H]1O[C@@H](O[C@H]2C(=O)c3c(O)cc(O)cc3O[C@@H]2c2ccc(O)cc2)[C@H](O)[C@H](O)[C@H]1O [engeletin],ALT release from HC treated with CCl4,[1],None of the test compounds
same,ALT activity in supernatants of HC co-cultured with pre-treated NPC,[8],dose-dependently inhibited
C[C@@H]1O[C@@H](Oc2coc3cc(O)cc(O)c3c2=O)[C@H](O)[C@H](O)[C@H]1O [eucryphin],ALT release from HC treated with CCl4,[1],None of the test compounds
same,ALT activity in supernatants of HC co-cultured with pre-treated NPC,[8],much stronger inhibitory effect
C[C@@H]1O[C@@H](O[C@@H]2C(=O)c3c(O)cc(O)cc3OC2c2cc(O)cc(O)c2)[C@H](O)[C@H](O)[C@H]1O (stereo partly drawn) [smitilbin],ALT release from HC treated with CCl4,[1],None of the test compounds
same,ALT activity in supernatants of HC co-cultured with pre-treated NPC,[8],dose-dependently inhibited
"O=P1(N(CCCl)CCCl)NCCCO1 (stereo not drawn) [cyclophosphamide, reference compound]",serum ALT activity,"[4]; 10 mg/kg, given in both induction and effector phases, positive control",significant decrease
same,"histopathological examination of liver (inflammatory infiltration, hepatocellular coagulation necrosis)",[4],improvement of liver injury
"COC(=O)c1cc(OC)c2c(c1-c1c(C(=O)OC)cc(OC)c3c1OCO3)OCO2 [BDD, biphenyl dimethyl dicarboxylate, reference compound]",ALT elevation,"[3]; 150 mg/kg orally, positive control",significantly decreased
same,ALT,[3]; dose 150 mg/kg orally,510.7 ± 27.0 Karmen unit
same,AST,[3]; dose 150 mg/kg orally,675.6 ± 80.9 Karmen unit
